Measurements from patent US20240374492A1, “A SUNSCREEN COMPOSITION COMPRISING AVOBENZONE AND A METHOD FOR PHOTOSTABILIZATION” (ISP Investments LLC, priority 2021, published 2024).

Assay: Photostability of avobenzone in combination with solvents (UV absorbance profile before and after 10 MED radiation)
Assay type: physicochemical
Conditions: avobenzone with the solvent; 10 MED radiation, solar simulator; UV absorbance 290-400 nm on PMMA plates
Text: 10 minimal erythemal dose (MED) is a quantified dose of radiation that is known for causing skin damage. UV screening agents will eventually breakdown into smaller molecule after prolonged exposure to UV radiation. This is a common, expected phenomenon however, some UV screening agents will degrade faster within the time a person is exposed to sunlight. If the UV screening agent degrades, it loses the ability to absorb UV radiations and eventually results in a lower absorption profile, that translate into a lower SPF value.
If the absorption profile of a specimen, prepared from a UV screening agent-solvent combination, measured after a predefined exposure of 10 MED radiation, reads similar to that of its initial readings, then the UV screening agent is said to be stable in that particular combination of solvent.
Method of testing photostability: For each test formulations prepared according to Table-1 to Table-7, 1.80 mg/cm^2 of samples were deposited on PMMA (polymethyl methacrylate) plates and spread evenly using finger cots. Three plates were prepared for each product. The initial UV absorbance profile of each slide was measured with a UV-VIS spectrophotometer in the wavelength range of 290-400 nm. Four readings were taken for each slide. The test slides were then exposed to 10 MED radiation using a Solar Light LS1000R3 solar simulator. The slides were then equilibrated at room temperature for 15 minutes, and the UV absorbance profile post radiation was measured. The readings were then plotted to correlate initial absorbance behavior of the specimens to that of post radiation. Any degradation of the UV screening agent will result in a lower absorbance readings compared to that of the initial absorbance profile.
FIG. 1 to FIG. 6 illustrate graphs plotted based on UV absorbance profile measured before and after an exposure of 10 MED radiation on test specimens comprising combination of avobenzone and solvents selected from Table-8.

Row | Compound | Stability of Avobenzone
1 | O=C(OCc1ccccc1)c1ccccc1 [Benzyl Benzoate] | stable
2 | CCC(OC(=O)c1ccccc1)c1ccccc1 (stereo not drawn) [1-Phenylpropyl Benzoate] | not stable
3 | O=C(OCCCc1ccccc1)c1ccccc1 [3-Phenylpropyl Benzoate] | stable
4 | CCN(CC)C(=O)c1cccc(C)c1 [N,N-Diethyl m-toluamide] | not stable
5 | CC(C)(C)c1ccc(C(=O)OCc2ccccc2)cc1 [Benzyl 4-tert-Butylbenzoate] | not stable
6 | Cc1ccccc1COC(=O)c1ccccc1 [o-Methylbenzyl Benzoate] | not stable
7 | Cc1ccccc1C(=O)OC1CCCCC1 [Cyclohexyl o-toluate] | not stable
8 | O=C(OCCC1CCCCC1)c1ccccc1 [2-Cyclohexylethyl Benzoate] | not stable
9 | Cc1ccc(C(=O)OC(C)c2ccccc2)cc1 (stereo not drawn) [1-Phenylethyl p-toluate] | not stable
10 | O=C(OCCc1ccccc1)C1CCCCC1 [2-Phenylethyl Cyclohexanoate] | not stable
11 | C12-C15 alkyl benzoate | not stable
12 | CCC(=O)OCCc1ccccc1 [2-Phenylethyl Propionate] | not stable
13 | Cc1ccccc1C(=O)OCCc1ccccc1 [2-Phenylethyl o-toluate] | stable
14 | CCc1ccc(C(=O)OCc2ccccc2)cc1 [Benzyl 4-Ethylbenzoate] | not stable
15 | O=C(OC1CCCCC1)c1ccccc1 [Cyclohexyl Benzoate] | not stable
16 | Cc1ccccc1C(=O)OCc1ccccc1 [Benzyl o-toluate] | stable
17 | CC(CCOC(=O)c1ccccc1)OC(=O)c1ccccc1 (stereo not drawn) [1,3-Butylene glycol Dibenzoate] | not stable
18 | O=C(OCc1ccccc1)c1ccccc1O [Benzyl Salicylate] | not stable
19 | O=C(OCCc1ccccc1)c1ccccc1 [Phenethyl benzoate] | stable
20 | CC(COC(=O)c1ccccc1)OC(=O)c1ccccc1 (stereo not drawn) [Propylene glycol Dibenzoate] | not stable
21 | Cc1cccc(COC(=O)c2ccccc2)c1 [m-Methylbenzyl Benzoate] | not stable
22 | CCCCCC(=O)OCCc1ccccc1 [2-Phenylethyl Hexanoate] | not stable
23 | Cc1cccc(C(=O)OCc2ccccc2)c1 [Benzyl m-toluate] | not stable

Same assay, conditions: avobenzone with the solvent; before and after 10 MED radiation

Row | Compound | Stability of avobenzone-solvent combination (UV absorbance profile after 10 MED radiation vs initial, FIG. 1 to FIG. 6)
24 | CCN(CC)C(=O)c1cccc(C)c1 [N,N-Diethyl m-toluamide] | highly instable
25 | CC(C)(C)c1ccc(C(=O)OCc2ccccc2)cc1 [Benzyl 4-tert-Butylbenzoate] | highly instable
26 | Cc1ccccc1C(=O)OC1CCCCC1 [Cyclohexyl o-toluate] | highly instable
27 | C12-C15 alkyl benzoate | highly instable
28 | Cc1ccccc1C(=O)OCCc1ccccc1 [2-Phenylethyl o-toluate] | stable
29 | O=C(OC1CCCCC1)c1ccccc1 [Cyclohexyl Benzoate] | highly instable
30 | Cc1ccccc1C(=O)OCc1ccccc1 [Benzyl o-toluate] | stable
31 | CC(CCOC(=O)c1ccccc1)OC(=O)c1ccccc1 (stereo not drawn) [1,3-Butylene glycol Dibenzoate] | highly instable
32 | O=C(OCCc1ccccc1)c1ccccc1 [Phenethyl benzoate] | stable
33 | CC(COC(=O)c1ccccc1)OC(=O)c1ccccc1 (stereo not drawn) [Propylene glycol Dibenzoate] | highly instable
